# Data as given in paper PMC3690454, “14-3-3 Proteins Interact with a Hybrid Prenyl-Phosphorylation Motif to Inhibit G Proteins” (Cell, 2013).
# Square brackets hold non-standard residues; d marks the D form. Ends that are not written are not given here. Peptide text beside a SMILES is read from it. * marks the point of attachment. Geranylgeranyl = CC(C)=CCC/C(C)=C/CC/C(C)=C/CC/C(C)=C/C*; Biotin = O=C1N[C@H]2[C@H](CS[C@H]2CCCCC(=O)*)N1; Farnesyl = CC(C)=CCC/C(C)=C/CC/C(C)=C/C*; pT = C[C@@H](OP(=O)(O)O)[C@H](N)C(=O)O; pS = N[C@@H](COP(=O)(O)O)C(=O)O; Ahx = NCCCCCC(=O)O
# Experiments:
# [1] = biological target: T1, 14-3-3δ (Homo sapiens, UniProt P63104); assay: Biolayer interferometry (Octet Red96) of candidate protein C-terminal peptides, Table S5; type: binding; details: for koff: typical experiment (n ≥ 3)
# T1 construct: hexa-His; made in house; host or cells: E. coli BL21(DE3) Star
# T1 sequence (P63104 1-245): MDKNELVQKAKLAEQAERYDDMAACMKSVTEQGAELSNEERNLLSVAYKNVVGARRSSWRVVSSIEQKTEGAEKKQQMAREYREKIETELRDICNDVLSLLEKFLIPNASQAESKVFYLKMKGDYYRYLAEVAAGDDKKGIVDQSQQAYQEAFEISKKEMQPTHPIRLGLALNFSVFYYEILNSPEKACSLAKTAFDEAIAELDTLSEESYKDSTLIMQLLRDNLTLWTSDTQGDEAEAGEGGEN
# Procedure: (§1) Biolayer interferometry was carried out using an Octet RED96 instrument (ForteBio). Biotinylated peptides were immobilized on streptavadin-coated biosensors (ForteBio) at a concentration of 1 μg/ml in BI buffer (25 mM Tris, 150 mM NaCl, 0.1% Tween-20), for 300 s. The immobilization typically reached a response level of 2 nm. Association and dissociation curves were obtained through addition of a dilution series of 14-3-3ζ ([…]) for 300 s followed by dissociation in BI buffer for 300 s using the Octet acquisition software. The binding data were fitted using the Octet analysis software.
# Table S5. Interactions of C-Terminal Peptides from Candidate Proteins with 14-3-3, […]
# The affinities of the indicated phosphorylated and geranylgeranylated peptides for 14-3-3δ were determined by biolayer interferometry using an Octet Red96 instrument. Data of a typical experiment (n ≥ 3) along with statistics of the fit (χ2, R2) are shown. Peptide sequences from the C-terminus of the indicated proteins (last 10 amino acids of the mature protein sequence, terminating with Cys of CAAX box) are shown in single letter amino acid code, with pS/pT denoting phosphorylated serine/threonine. The modifications added to the C-terminal Cys are indicated. GG, geranylgeranylated; KD, dissociation constant; kon, association rate constant; koff, dissocation rate constant.
# [2] = biological target: T2, 14-3-3ζ (Homo sapiens, UniProt P63104); assay: Isothermal titration calorimetry of Rnd3 C-terminal peptides with 14-3-3ζ; type: binding; details: ITC
# T2 construct: hexa-His; made in house; host or cells: E. coli BL21(DE3) Star
# T2 sequence (P63104 1-245): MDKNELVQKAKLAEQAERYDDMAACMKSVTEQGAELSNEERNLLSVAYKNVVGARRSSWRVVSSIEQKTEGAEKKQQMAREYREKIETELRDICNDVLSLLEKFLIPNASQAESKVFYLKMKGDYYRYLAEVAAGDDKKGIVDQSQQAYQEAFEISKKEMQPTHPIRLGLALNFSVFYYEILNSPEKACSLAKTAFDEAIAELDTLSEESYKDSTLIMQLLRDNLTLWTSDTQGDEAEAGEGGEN
# Procedure: ITC measurements were carried out using a VP-ITC200 instrument (GE Healthcare). The 14-3-3ζ domain (see Extended Experimental Procedures) was used at 50–60 μM in ITC buffer (50 mM Tris [pH 7.5]), 100 mM NaCl, 1 mM TCEP). Rnd3 C-terminal peptides were solubilized in ITC buffer and used at 500–600 μM. Titrations were carried out at 25°C in triplicate. Each titration was fitted to a simple one-site binding model using the Origin software provided with the instrument. Titrations with nonbinding peptides were carried out at 15°C and 25°C.
# GST-14-3-3β protein was expressed as previously reported ([Yaffe et al., 1997]). A hexa-His-tagged version of 14-3-3ζ was expressed and purified essentially as previously reported ([Kostelecky et al., 2009]). In brief, the E. coli strain BL21(DE3) Star (Invitrogen) was transformed with the expression plasmid that was maintained by 34 μg/ml chloramphenicol. E. coli cells were grown to OD600nm of 0.7-0.8 in TB medium at 37°C and protein expression induced by 1 mM IPTG for 5 hr at 30°C. Pelleted cells were suspended in buffer A (25 mM Tris [pH 7.5], 100 mM NaCl, 1 mM EDTA, and 1 mM DTT) and disrupted by sonication. Insoluble material was cleared by high-speed centrifugation and the cleared lysate applied to a 5 ml HisTrap column using an AKTA system (GE Healthcare). The 14-3-3ζ protein was eluted with a linear gradient (0–500 mM) of Imidazole in buffer A. Finally, the protein was subjected to size-exclusion chromatography using a High-Load S200 pg column. As previously described, 14-3-3ζ eluted as a dimer with a molecular weight of ∼60 kDa. The final yield of 14-3-3ζ was 30–40 mg per liter of TB medium.
# [3] = biological target: T2, 14-3-3ζ; assay: Biolayer interferometry (Octet RED96), immobilised biotinylated peptides, 14-3-3ζ in solution; type: binding; details: for Kd: kinetic fit, peptide immobilised at 1 μg/ml, 25 mM Tris, 150 mM NaCl, 0.1% Tween-20, association 300 s, dissociation 300 s, NB = no binding; for Kd / koff / kon: typical experiment (n ≥ 3)
# Procedure: as §1
# [4] = biological target: hexa-His-tagged 14-3-3ζ (UniProt P63104); assay: ITC; VP-ITC200; 14-3-3ζ at 50–60 μM, Rnd3 peptides at 500–600 μM; 50 mM Tris pH 7.5, 100 mM NaCl, 1 mM TCEP; 25°C, one-site model; non-binding peptides at 15°C and 25°C
molecule,measurement,setting,value
CC(C)=CCC/C(C)=C/CC/C(C)=C/CC/C(C)=C/CSC[C@H](NC(=O)[C@H](COP(=O)(O)O)NC(=O)[C@H](CO)NC(=O)[C@H](CCCCN)NC(=O)[C@H](CCCCN)NC(=O)[C@H](CCCNC(=N)N)NC(=O)[C@H](C)NC(=O)[C@H](CCCCN)NC(=O)CNC(=O)[C@@H]1CCCN1C(=O)CCCCCNC(=O)CCCC[C@@H]1SC[C@@H]2NC(=O)N[C@@H]21)C(=O)O [Rap1B] ({Biotin-Ahx}-PGKARKKS[pS]C(Geranylgeranyl)-OH),affinity for 14-3-3 (in words),[1]; compared with farnesylated or geranylgeranylated Rnd3 peptides,lower affinity
same,koff,[1],0.055 s⁻¹
DLRKDKAKSC-OH [−P-F],binding to 14-3-3ζ (in words),[2]; tested at 15°C and 25°C,no binding
same,Kd,[3],> 4 µM
CC(C)=CCC/C(C)=C/CC/C(C)=C/CC/C(C)=C/CSC[C@H](NC(=O)[C@@H](NC(=O)[C@H](CCCCN)NC(=O)[C@H](CO)NC(=O)[C@H](CCCCN)NC(=O)[C@H](CCCCN)NC(=O)[C@H](CC(=O)O)NC(=O)[C@H](CC(=O)O)NC(=O)CNC(=O)CNC(=O)CCCCCNC(=O)CCCC[C@@H]1SC[C@@H]2NC(=O)N[C@@H]21)[C@@H](C)OP(=O)(O)O)C(=O)O [PDE6C] ({Biotin-Ahx}-GGDDKKSK[pT]C(Geranylgeranyl)-OH),koff,[1],0.018 s⁻¹
Rap1A+P-GG: phosphorylated Rap1A peptide without the geranylgeranyl modification (EKKKPKKK[pS]C; not fully specified (N-terminus); also: biotinylated),affinity for 14-3-3ζ (in words),[3]; Figure 7C,micromolar affinity
CC(C)=CCC/C(C)=C/CC/C(C)=C/CC/C(C)=C/CSC[C@H](NC(=O)[C@H](COP(=O)(O)O)NC(=O)[C@H](CCCCN)NC(=O)[C@H](C)NC(=O)[C@H](CCCCN)NC(=O)[C@H](CC(=O)O)NC(=O)[C@H](CCCCN)NC(=O)[C@H](CCCNC(=N)N)NC(=O)[C@H](CC(C)C)NC(=O)[C@H](CC(=O)O)NC(=O)CCCCCNC(=O)CCCC[C@@H]1SC[C@@H]2NC(=O)N[C@@H]21)C(=O)O [+P+GG] ({Biotin-Ahx}-DLRKDKAK[pS]C(Geranylgeranyl)-OH),Kd,[3],0.0232 µM
same,koff,[3],0.021 s⁻¹
same,kon,[3],890000 M⁻¹ s⁻¹
"biotinylated Rnd3 C-terminal peptide, phosphorylated on S240 and farnesylated on C241 (+P+F)",dH,[4],-2.96 kcal/mol
same,stoichiometry N,[4],0.83
CC(C)=CCC/C(C)=C/CC/C(C)=C/CSC[C@H](NC(=O)[C@H](COP(=O)(O)O)NC(=O)[C@H](CCCCN)NC(=O)[C@H](C)NC(=O)[C@H](CCCCN)NC(=O)[C@H](CC(=O)O)NC(=O)[C@H](CCCCN)NC(=O)[C@H](CCCNC(=N)N)NC(=O)[C@H](CC(C)C)NC(=O)[C@@H](N)CC(=O)O)C(=O)O [+P+F] (H-DLRKDKAK[pS]C(Farnesyl)-OH),Kd,"[2]; 25°C, 50 mM Tris pH 7.5, 100 mM NaCl, 1 mM TCEP, one-site model, mean ± SD, n = 3",0.069 ± 0.025 µM
same,Kd,[3],0.0324 µM
same,koff,[3],0.028 s⁻¹
same,kon,[3],860000 M⁻¹ s⁻¹
"biotinylated Rnd3 C-terminal peptide, phosphorylated on S240 (+P−F)",dH,[4],-5.68 kcal/mol
same,stoichiometry N,[4],0.89
